These compounds were tested against T1, hNPRA (Homo sapiens, UniProt P16066) (assay: NPRA Functional Cell Assay (cGMP HTRF)). Conditions: Human NPRA HEK JumpIn stable cells; cGMP by HTRF after 1 hour at 37° C.; 10-point dose response.
T1 construct: expressed in transfected cells
T1 sequence (P16066 33-1061): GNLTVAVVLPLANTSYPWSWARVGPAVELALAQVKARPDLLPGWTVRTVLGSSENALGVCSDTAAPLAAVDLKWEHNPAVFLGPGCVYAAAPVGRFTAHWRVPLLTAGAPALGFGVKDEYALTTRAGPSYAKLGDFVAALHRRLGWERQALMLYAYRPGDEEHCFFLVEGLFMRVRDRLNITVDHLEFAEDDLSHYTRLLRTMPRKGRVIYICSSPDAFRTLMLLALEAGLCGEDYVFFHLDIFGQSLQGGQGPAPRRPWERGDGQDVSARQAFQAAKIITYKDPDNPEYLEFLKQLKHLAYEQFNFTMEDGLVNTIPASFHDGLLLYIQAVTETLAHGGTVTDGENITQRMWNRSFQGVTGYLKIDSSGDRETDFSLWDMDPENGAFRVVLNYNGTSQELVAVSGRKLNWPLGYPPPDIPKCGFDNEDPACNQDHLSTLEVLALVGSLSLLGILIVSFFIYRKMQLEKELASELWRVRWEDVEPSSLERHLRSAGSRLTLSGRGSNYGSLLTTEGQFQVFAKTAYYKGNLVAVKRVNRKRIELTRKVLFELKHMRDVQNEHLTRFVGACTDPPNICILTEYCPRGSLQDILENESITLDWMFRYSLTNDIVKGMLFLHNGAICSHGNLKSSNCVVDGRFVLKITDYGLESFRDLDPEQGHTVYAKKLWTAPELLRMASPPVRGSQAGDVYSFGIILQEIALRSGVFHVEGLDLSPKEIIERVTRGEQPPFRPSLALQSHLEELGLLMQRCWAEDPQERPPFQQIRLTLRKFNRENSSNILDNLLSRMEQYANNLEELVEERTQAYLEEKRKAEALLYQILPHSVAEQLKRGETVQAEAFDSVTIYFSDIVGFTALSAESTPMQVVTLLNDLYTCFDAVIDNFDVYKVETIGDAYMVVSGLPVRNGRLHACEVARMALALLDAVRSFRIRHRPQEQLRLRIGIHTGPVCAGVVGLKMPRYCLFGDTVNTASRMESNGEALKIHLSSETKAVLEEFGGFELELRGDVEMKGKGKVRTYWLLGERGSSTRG
Type: cell-based
Source text: Assay Buffer components HEPES and Opti-MEM® I Reduced-Serum with Glutamine (no phenol red) were from Gibco/Invitrogen (Thermo Fisher Scientific, Waltham, Mass. USA). 3-Isobutyl-1-methylxanthine (IBMX) and 4-(3-Butoxy-4-methoxybenzyl)imidazolidin-2-one (RO20) were obtained from Sigma-Aldrich (St. Louis, Mo., USA). DPBS (Dulbecco's phosphate-buffered saline) without Ca2+ and Mg2+ was purchased from GE Healthcare Bio-Sciences (Pittsburgh, Pa., USA). 384 well white Optiplates were from Perkin Elmer (Atlantic Highlands, N.J., USA). Human ANP (Atrial Natriuretic Peptide) (1-28) was purchased from Sigma-Aldrich (Catalog #A1663) and rat ANP (1-28) from Bachem (Torrance, Calif., USA) (Catalog #H2100). Human-BNP (Human-Brain Natriuretic Peptide) (1-32 AA) was purchased from American Peptide Company (Sunnyvale, Calif., USA) (product No. 14-1-90). cGMP kits were purchased from Cisbio. The assay ready frozen (ARF) Human/rat/dog NPRA HEK JumpIn Stable frozen cells (low passage number 5-11) were prepared in-house.
Test compounds were titrated in DMSO in a 10-point dose response in a separate step followed by a 100-fold dilution into the reaction. Positive response for each assay was determined using 10 nM rat-ANP peptide (rat cells) or 50 nM h-ANP peptide (human and dog cells).
Cells were thawed, washed with DPBS and resuspended in assay buffer (Opti-MEM+Glutamine, phenol red free media, 10 mM HEPES, 100 uM IBMX and 100 uM RO20) that was warmed to 37° C. Cells were then transferred to microplates via a Microplate Combi dispenser at a density of 1500, 400 and 1200 cells/well for human, rat and dog cells respectively, followed by acoustic transfer (Echo) of compound.
(§1) Compounds and cells were incubated at 37° C. with 5% CO2 for 1 hour, after which the cells were lysed and cGMP was captured using a CisBio cGMP HTRF assay kit. The TRF signal was measured with an Envision plate reader (emission set to 615 and 665 nm) after 1 hour incubation at ambient temperature. The TRF signal was converted to [cGMP] through the use of a cGMP calibration curve on each microplate. EC50's were generated from the resulting dose response curves by use of a 4 parameter logistic algorithm.
Assay Buffer components HEPES and Opti-MEM® I Reduced-Serum with Glutamine (no phenol red) were from Gibco/Invitrogen. 3-Isobutyl-1-methylxanthine (IBMX) and 4-(3-Butoxy-4-methoxybenzyl)imidazolidin-2-one (RO20) were obtained from Sigma. DPBS (Dulbecco's phosphate-buffered saline) without Ca2+ and Mg2+ was purchased from GE Healthcare Bio-Sciences (Pittsburgh, Pa., USA). 384 well white Optiplates were from Perkin Elmer (Atlantic Highlands, N.J., USA). Human ANP (1-28) was purchased from Sigma (A1663) and rat ANP (1-28) from Bachem (H2100). Human-BNP (1-32 AA) was purchased from American Peptide Company (Sunnyvale, Calif., USA) (product No. 14-1-90). cGMP kits were purchased from Cisbio (Bedford, Mass., USA). The assay ready frozen (ARF) Human/rat/dog NPRA HEK JumpIn Stable frozen cells (low passage number 5-11) were prepared in-house.
as §1, with “Envision®” for “Envision”, “(Perkin Elmer)(emission” for “(emission”
hNPRA EC50 (nM) are were determined for the compounds of Example 1 through 273 and are reported in the Experimental section of this application.

Row | Structure (SMILES) | EC50 [nM]
1 | CC(C)[C@]1(F)CCc2nc3c(F)cc(C(=O)N[C@H](CCN4CCC5(O)CCCCC5C4)c4ccc(-c5ccnnc5)nc4)cc3cc2C1 (mixture of isomers) [Example 52, rac-(7S)-4,7-difluoro-7-isopropyl-N-[rac-(1R)-3-(4a-hydroxy-1,3,4,5,6,7,8,8a-octahydroisoquinolin-2-yl)-1-(6-pyridazin-4-yl-3-pyridyl)propyl]-6,8-dihydro-5H-acridine-2-carboxamide] | 258
2 | CC(C)[C@]1(F)CCc2nc3c(F)cc(C(=O)N[C@H](CCN4CCC(O)CC4)c4cnc(NS(=O)(=O)N(C)C)c(F)c4)cc3cc2C1 [Example 27, (S)-N-((R)-1-(6-((N,N-dimethylsulfamoyl)amino)-5-fluoropyridin-3-yl)-3-(4-hydroxypiperidin-1-yl)propyl)-4,7-difluoro-7-isopropyl-5,6,7,8-tetrahydroacridine-2-carboxamide] | 2450
3 | COCCCC1CCN(CC[C@@H](NC(=O)c2cc(F)c3nc4c(cc3c2)C[C@](F)(C(C)C)CC4)c2ccc(-c3ccnnc3)nc2)CC1 (racemic) [Example 51, rac-(7S)-4,7-difluoro-7-isopropyl-N-[rac-(1R)-3-[4-(3-methoxypropyl)-1-piperidyl]-1-(6-pyridazin-4-yl-3-pyridyl)propyl]-6,8-dihydro-5H-acridine-2-carboxamide] | 175
4 | CC(C)[C@]1(F)CCc2nc3c(F)cc(C(=O)N[C@H](CCN4CCC(O)CC4)c4ccc(NS(=O)(=O)N(C)C)nc4)cc3cc2C1 [Example 26, (S)-N-((R)-1-(6-((N,N-dimethylsulfamoyl)amino)pyridin-3-yl)-3-(4-hydroxypiperidin-1-yl)propyl)-4,7-difluoro-7-isopropyl-5,6,7,8-tetrahydroacridine-2-carboxamide] | 246
5 | CC1C(=O)NC(=O)N1c1ccc([C@@H](CCN2CCC(O)CC2)NC(=O)c2cc(F)c3nc4c(cc3c2)C[C@](F)(C(C)C)CC4)cn1 (stereo partly drawn) [Example 29, (7S)-4,7-difluoro-N-((1R)-3-(4-hydroxypiperidin-1-yl)-1-(6-(5-methyl-2,4-dioxoimidazolidin-1-yl)pyridin-3-yl)propyl)-7-isopropyl-5,6,7,8-tetrahydroacridine-2-carboxamide] | 275
6 | CC(C)[C@]1(F)CCc2nc3c(F)cc(C(=O)N[C@H](CCN4CCC(O)CC4)c4ccc(N5CC[C@@H](O)[C@H](F)C5)nc4)cc3cc2C1 [Example 33, (S)-4,7-difluoro-N-((R)-1-(6-((3R,4R)-3-fluoro-4-hydroxypiperidin-1-yl)pyridin-3-yl)-3-(4-hydroxypiperidin-1-yl)propyl)-7-isopropyl-5,6,7,8-tetrahydroacridine-2-carboxamide] | 871
7 | CC(C)[C@]1(F)CCc2nc3c(F)cc(C(=O)N[C@H](CCN4CCC(O)CC4)c4ccc(N5CC6CCC5CO6)nc4)cc3cc2C1 (stereo partly drawn) [Example 34, (7S)-N-((1R)-1-(6-(2-oxa-5-azabicyclo[2.2.2]octan-5-yl)pyridin-3-yl)-3-(4-hydroxypiperidin-1-yl)propyl)-4,7-difluoro-7-isopropyl-5,6,7,8-tetrahydroacridine-2-carboxamide] | 2840

Further lines, results first:

Row | EC50 [nM] | Structure (SMILES)
8 | 142 | CC(C)[C@]1(F)CCc2nc3c(F)cc(C(=O)N[C@H](CCN4CCCOCC4)c4ccc(-c5ccnnc5)nc4)cc3cc2C1 (racemic) [Example 57, rac-(7S)-4,7-difluoro-7-isopropyl-N-[rac-(1R)-3-(1,4-oxazepan-4-yl)-1-(6-pyridazin-4-yl-3-pyridyl)propyl]-6,8-dihydro-5H-acridine-2-carboxamide]
9 | 204 | COCC1CCN(CC[C@@H](NC(=O)c2cc(F)c3nc4c(cc3c2)C[C@](F)(C(C)C)CC4)c2ccc(-c3ccnnc3)nc2)CC1 (racemic) [Example 46, rac-(7S)-4,7-difluoro-7-isopropyl-N-[rac-(1R)-3-[4-(methoxymethyl)piperidin-1-ium-1-yl]-1-(6-pyridazin-4-yl-3-pyridyl)propyl]-6,8-dihydro-5H-acridine-2-carboxamide;2,2,2-trifluoroacetate]
10 | 205 | CC(C)[C@]1(F)CCc2nc3c(F)cc(C(=O)N[C@H](CCN4CCC(C)(O)CC4)c4ccc(-c5ccnnc5)nc4)cc3cc2C1 [Example 12, (7S)-4,7-difluoro-N-[(1R)-3-(4-hydroxy-4-methylpiperidin-1-yl)-1-(6-pyridazin-4-ylpyridin-3-yl)propyl]-7-(1-methylethyl)-5,6,7,8-tetrahydroacridine-2-carboxamide]
11 | 105 | CC(C)[C@]1(F)CCc2nc3c(F)cc(C(=O)N[C@H](CCN4CCC5(CC[C@H](O)C5)CC4)c4ccc(-c5ccnnc5)nc4)cc3cc2C1 (racemic) [Example 48, rac-(7S)-4,7-difluoro-7-isopropyl-N-[rac-(1R)-1-(6-pyridazin-4-yl-3-pyridyl)-3-[rac-(3S)-3-hydroxy-8-azaspiro[4.5]decan-8-yl]propyl]-6,8-dihydro-5H-acridine-2-carboxamide]
12 | 79.7 | CC(C)[C@]1(F)CCc2nc3c(F)cc(C(=O)N[C@H](CCN4CCCCC4CO)c4ccc(-c5ccnnc5)nc4)cc3cc2C1 (mixture of isomers) [Example 58, rac-(7S)-4,7-difluoro-7-isopropyl-N-[rac-(1R)-3-[2-(hydroxymethyl)-1-piperidyl]-1-(6-pyridazin-4-yl-3-pyridyl)propyl]-6,8-dihydro-5H-acridine-2-carboxamide]
13 | 260 | CC(C)[C@]1(F)CCc2nc3c(F)cc(C(=O)N[C@H](CCN4CCC[C@H](O)C4)c4ccc(-c5ccnnc5)nc4)cc3cc2C1 (racemic) [Example 36, rac-(7S)-4,7-difluoro-7-isopropyl-N-[rac-(1R)-1-(6-pyridazin-4-yl-3-pyridyl)-3-[rac-(3S)-3-hydroxypiperidin-1-ium-1-yl]propyl]-6,8-dihydro-5H-acridine-2-carboxamide;2,2,2-trifluoroacetate]

— US20220281886A1, “NATRIURETIC PEPTIDE RECEPTOR A AGONISTS USEFUL FOR THE TREATMENT OF CARDIOMETABOLIC DISEASES, KIDNEY DISEASE AND DIABETES” (Merck Sharp & Dohme Corp., priority 2019, published 2022)
